In US7358044B2, “Prophylactic and therapeutic benefits of a new class of immune stimulating peptides” (priority 2003, dated 2008):
Marks after values point to notes of the source that are not given here.

Tests used:
clinical mastitis = test: Clinical mastitis, ICPF versus Polyflex; type: in vivo, bovine
Protocol: Nineteen animals were showing signs of clinical mastitis, i.e. abnormal milk appearance, painful teat, etc. These animals were randomly assigned to either a test or a control group. The control group animals (n=10) were treated according to the dairy's normal practice for treatment of clinical cases of mastitis, i.e. intramuscular injection of Polyflex brand (Fort Dodge Animal Health) of ampicillin (5 mg/lb×3 days). […] The SCC's for the treatment and control animals were compared 30 days later. The means of the pre-treatment test and control groups were determined to not be statistically different and neither were the standard deviations of the two groups statistically different. […] Two animals in the test group were refractory to treatment.

J774A.1 macrophages = test: Macrophage activation, NO production (Greiss reagent); type: cell-based
Protocol: J774A.1 macrophages (ATCC TIB67, 5×10^4 viable cells/well) were cultured in Dulbecco's Modified Eagle Medium (DMEM, high glucose)+10% FBS+100 U/ml penicillin+100 μg/ml streptomycin for 24 hr prior to treatment addition. NO production was determined colorimetrically using the Greiss reagent 24 hr after experimental treatments. […] Statistical significance was analyzed by comparison of mean values using the Student's t test (unpaired, two-tailed).

NK cells = test: NK cell activity of splenocytes from treated mice, chromium-release assay; type: in vivo
From the text: The results are depicted in Table 2.

[1] = 0.25 ml i.p. (5 mg ICPF or 20 μg Poly I:C), spleens harvested the following day, mean n = 3 with standard error

CC1(C)S[C@@H]2[C@H](NC(=O)[C@H](N)c3ccccc3)C(=O)N2[C@H]1C(=O)O [Polyflex, ampicillin]
animals that showed improvement (clinical mastitis; 30 days, Polyflex 5 mg/lb x 3 days i.m. (n=10)): one | average somatic cell count for the group increased by (clinical mastitis; Polyflex 5 mg/lb x 3 days i.m., n=10, test period): 7%

ICPF-peptide: Purified peptide from ICPF (RSVSLSYRF)
induction of NO in combination with LPS (J774A.1 macrophages; ICPF 100 μg/ml or ICPF-peptide 10 μg/ml with LPS 0-10 μg/ml in the absence of IFN-γ): unable to induce NO | amount of NO induced by the minimal stimulatory dose of LPS + IFN-γ (J774A.1 macrophages; ICPF-peptide 0.1-100 μg/ml, LPS 10 ng/ml + IFN-γ 1-5 U/ml): did not modulate the amount of NO | dose of LPS required to induce NO (J774A.1 macrophages; IFN-γ stimulated macrophages, ICPF 100 μg/ml, ICPF-peptide 10 μg/ml): Neither ICPF (100 μg/ml) nor ICPF-peptide (10 μg/ml) altered the dose of LPS required to induce NO | dose of IFN-γ required to induce NO (J774A.1 macrophages; LPS-stimulated macrophages, ICPF 100 μg/ml, ICPF-peptide 10 μg/ml): Neither ICPF (100 μg/ml) nor ICPF-peptide (10 μg/ml) altered the dose of IFN-γ required to induce NO | induction of NO (J774A.1 macrophages; purified peptide 0.1-100 μg/ml, absence or presence of IFN-γ): failed to induce NO

Poly I:C
Percent 51Cr released at E:T ratios 50:1 (NK cells; [1]): 19.1 ± 1.0^b Percent | Percent 51Cr released at E:T ratios 100:1 (NK cells; [1]): 31.5 ± 1.1^b Percent | Percent 51Cr released at E:T ratios 200:1 (NK cells; [1]): 35.3 ± 1.6^b Percent | direct activation of NK cells (NK cells; naive mice, E:T ratios of 200:1, 100:1, and 50:1): induced activation of NK cells
